Measurements published in patent US10618918B2, “Substituted boronic acids as antimicrobials” (priority 2015, dated 2020).
Read-outs that look alike come from different tables or passages of the source.

Experiments:
[1] = biological target: T1, purified class A, C and D enzymes (β-lactamases) (Pseudomonas aeruginosa, UniProt P24735); assay: biochemical; format: biochemical
T1 construct: rows headed: Ki (Pa-AmpC, NCF), uM; other: purified Pa-AmpC; nitrocefin (NCF) as reporter substrate

[2] = biological target: purified class A, C and D enzymes (β-lactamases) (Enterobacter cloacae, UniProt P05364); assay: biochemical; format: biochemical
Chain of purified class A, C and D enzymes (β-lactamases) (Enterobacter cloacae, UniProt P05364) (P05364 21-381): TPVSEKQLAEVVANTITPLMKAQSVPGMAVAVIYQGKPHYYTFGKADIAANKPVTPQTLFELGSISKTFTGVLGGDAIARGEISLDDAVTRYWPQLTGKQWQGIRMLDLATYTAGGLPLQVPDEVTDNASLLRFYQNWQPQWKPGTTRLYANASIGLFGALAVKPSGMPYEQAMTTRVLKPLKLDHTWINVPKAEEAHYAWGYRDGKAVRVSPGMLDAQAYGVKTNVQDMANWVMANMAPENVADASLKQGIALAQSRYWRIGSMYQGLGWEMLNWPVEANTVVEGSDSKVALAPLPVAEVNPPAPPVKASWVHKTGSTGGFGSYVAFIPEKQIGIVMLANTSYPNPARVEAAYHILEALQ

[3] = biological target: purified class A, C and D enzymes (β-lactamases) (Klebsiella pneumoniae, UniProt Q6XEC0); assay: biochemical; format: biochemical; settings: purified OXA-48; nitrocefin (NCF) as reporter substrate
[4] = biological target: T2, purified class A, C and D enzymes (β-lactamases) (Acinetobacter baumannii, UniProt Q9L4P2); assay: biochemical; format: biochemical; settings: purified OXA-23; nitrocefin (NCF) as reporter substrate
T2 construct: rows headed: Ki (OXA-23, NCF), uM; other: purified OXA-23; nitrocefin (NCF) as reporter substrate
T2 sequence (Q9L4P2 whole entry): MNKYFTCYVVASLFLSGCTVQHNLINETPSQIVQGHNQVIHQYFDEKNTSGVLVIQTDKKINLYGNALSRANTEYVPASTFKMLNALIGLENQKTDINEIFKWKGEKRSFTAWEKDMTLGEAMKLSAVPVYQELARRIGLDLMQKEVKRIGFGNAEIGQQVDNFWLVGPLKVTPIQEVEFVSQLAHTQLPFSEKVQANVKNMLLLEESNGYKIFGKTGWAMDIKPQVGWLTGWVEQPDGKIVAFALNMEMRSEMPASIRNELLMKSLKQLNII

[5] = biological target: purified class A, C and D enzymes (β-lactamases) (Escherichia coli, UniProt Q9L5C7); assay: biochemical; format: biochemical; settings: purified CTX-M-14; nitrocefin (NCF) as reporter substrate
Chain of purified class A, C and D enzymes (β-lactamases) (Escherichia coli, UniProt Q9L5C7) (Q9L5C7 entry or part of it): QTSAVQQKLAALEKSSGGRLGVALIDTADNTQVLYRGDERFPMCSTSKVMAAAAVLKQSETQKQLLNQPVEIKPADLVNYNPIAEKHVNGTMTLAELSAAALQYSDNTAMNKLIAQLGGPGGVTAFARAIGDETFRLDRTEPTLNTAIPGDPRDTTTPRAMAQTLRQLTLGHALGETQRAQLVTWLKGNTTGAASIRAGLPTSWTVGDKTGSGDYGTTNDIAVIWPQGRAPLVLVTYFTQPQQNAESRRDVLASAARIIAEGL

[6] = biological target: purified class A, C and D enzymes (β-lactamases) (Klebsiella pneumoniae, UniProt Q9F663); assay: biochemical; format: biochemical; settings: purified KPC-2; nitrocefin (NCF) as reporter substrate
KP1004 KPC-2 [7] = assay: Aztreonam potentiation (MPC@4), strain KP1004 KPC-2; settings: minimum BLI concentration inhibiting growth with aztreonam 4 μg/mL; tested up to 40 μg/mL
KP1009 CTX-M-15 = assay: Aztreonam potentiation (MPC@4), strain KP1009 CTX-M-15; settings: minimum BLI concentration inhibiting growth with aztreonam 4 μg/mL; tested up to 40 μg/mL
ec302 TEM-10 = assay: Aztreonam potentiation (MPC@4), strain ec302 TEM-10; settings: minimum BLI concentration inhibiting growth with aztreonam 4 μg/mL; tested up to 40 μg/mL
KP1005 CTX-M-14 = assay: Tigemonam potentiation (MPC@4), strain KP1005 CTX-M-14; settings: minimum BLI concentration inhibiting growth with tigemonam 4 μg/mL; tested up to 40 μg/mL
KP1086 OXA-48 = assay: Biapenem potentiation (MPC@1), strain KP1086 OXA-48; format: cell-based; settings: minimum BLI concentration inhibiting growth with biapenem 1 μg/mL; tested up to 40 μg/mL
Protocol: (§1) Biapenem was present in the test medium at 1 μg/mL. […] Table 3 summarizes the BLI potency of biapenem potentiation (MPC@1) for two strains overexpressing class A (KPC) and class D (OXA-48) carbapenemases. Biapenem MIC for each strain is also shown.

AB1054 OXA-23 = assay: Meropenem potentiation (MPC@8), strain AB1054 OXA-23; format: cell-based, Acinetobacter baumannii; settings: minimum BLI concentration inhibiting growth with meropenem 8 μg/mL; tested up to 20 μg/mL
AB1053 OXA-72 = assay: Meropenem potentiation (MPC@8), strain AB1053 OXA-72; format: cell-based, Acinetobacter baumannii; settings: minimum BLI concentration inhibiting growth with meropenem 8 μg/mL; tested up to 20 μg/mL
ECL1002 = assay: Aztreonam potentiation (MPC@4), strain ECL1002; settings: minimum BLI concentration inhibiting growth with aztreonam 4 μg/mL; tested up to 40 μg/mL
KP1004 KPC-2 [8] = assay: Biapenem potentiation (MPC@1), strain KP1004 KPC-2; format: cell-based; settings: minimum BLI concentration inhibiting growth with biapenem 1 μg/mL; tested up to 40 μg/mL
Protocol: as §1

EC1010 CMY-6 = assay: Aztreonam potentiation (MPC@4), strain EC1010 CMY-6; settings: minimum BLI concentration inhibiting growth with aztreonam 4 μg/mL; tested up to 40 μg/mL
ec308 SHV-5 = assay: Aztreonam potentiation (MPC@4), strain ec308 SHV-5; settings: minimum BLI concentration inhibiting growth with aztreonam 4 μg/mL; tested up to 40 μg/mL
KP1010 SHV-12 = assay: Aztreonam potentiation (MPC@4), strain KP1010 SHV-12; settings: minimum BLI concentration inhibiting growth with aztreonam 4 μg/mL; tested up to 40 μg/mL

T1 sequence (P24735 whole entry): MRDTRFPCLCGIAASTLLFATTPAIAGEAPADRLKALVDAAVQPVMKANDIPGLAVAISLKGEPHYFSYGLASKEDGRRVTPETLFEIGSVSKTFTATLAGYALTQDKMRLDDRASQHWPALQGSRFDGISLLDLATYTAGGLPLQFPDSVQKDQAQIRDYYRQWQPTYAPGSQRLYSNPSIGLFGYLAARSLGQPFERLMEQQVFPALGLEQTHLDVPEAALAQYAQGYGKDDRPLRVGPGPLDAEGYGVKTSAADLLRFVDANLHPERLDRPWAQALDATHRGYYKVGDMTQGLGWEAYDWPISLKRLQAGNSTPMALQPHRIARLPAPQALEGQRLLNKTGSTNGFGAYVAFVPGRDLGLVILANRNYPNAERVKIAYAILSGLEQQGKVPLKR

Row | Structure (SMILES) | Ki [1] [nM] | Ki (P99, NCF), uM [2] | Ki (OXA-48, NCF), uM [3] | Ki [4] [nM] | Ki (CTX-M-14, NCF), uM [5] | Ki (KPC-2, NCF), uM [6] | AZT MPC4 KPC-2 KP1004 (KP1004 KPC-2 [7]) | AZT MPC4 CTX-M-15 KP1009 (KP1009 CTX-M-15) | AZT MPC4 TEM-10 ec302 (ec302 TEM-10) | TIG MPC4 CTX-M-14 KP1005 (KP1005 CTX-M-14) | BPM MPC1 OXA-48 KP1086 (KP1086 OXA-48) | MPM MPC8 AB1054 OXA-23 (AB1054 OXA-23) | MPM MPC8 AB1053 OXA-72 (AB1053 OXA-72) | AZT MPC4 ECL1002 (ECL1002) | BPM MPC1 KP1004 KPC-2 (KP1004 KPC-2 [8]) | AZT MPC4 CMY-6 EC1010 (EC1010 CMY-6) | AZT MPC4 SHV-5 ec308 (ec308 SHV-5) | AZT MPC4 SHV-12 KP1010 (KP1010 SHV-12) | Ki ([1]; purified Pa-AmpC, nitrocefin (NCF) as reporter substrate, read-out: Ki (Pa-AmpC, NCF)) [nM] | Ki (P99, NCF), uM ([2]; purified P99, nitrocefin (NCF) as reporter substrate)
1 | O=C([O-])c1c(OCC(F)F)ccc2c1O[B-](O)(O)CC2.[Na+].[Na+] [Compound 29, Disodium; 8-(2,2-difluoroethoxy)-4,4-dihydroxy-5-oxa-4-boranuidabicyclo[4.4.0]deca-1(6),7,9-triene-7-carboxylate] | < 100 | X (key: X = Ki ≤ 0.1 μM; Y = 0.1 μM < Ki ≤ 1 μM; Z = Ki > 1 μM) | X (X = Ki ≤ 0.1 μM) | < 100 | X (X = Ki ≤ 0.1 μM) | X (X = Ki ≤ 0.1 μM) | X (X = MPC@4 ≤ 5 μg/mL) | Y (Y = 5 μg/mL < MPC@4 ≤ 20 μg/mL) | Y (Y = 5 μg/mL < MPC@4 ≤ 20 μg/mL) | Y (Y = 5 μg/mL < MPC@4 ≤ 20 μg/mL) | X (X = MPC@1 ≤ 5 μg/mL) | Y (Y = 5 μg/mL < MPC@1 ≤ 20 μg/mL) | X (X = MPC@1 ≤ 5 μg/mL) | X (X = MPC@4 ≤ 5 μg/mL) | X (X = MPC@1 ≤ 5 μg/mL) | X (X = MPC@4 ≤ 5 μg/mL) | X (X = MPC@4 ≤ 5 μg/mL) | X (X = MPC@4 ≤ 5 μg/mL) | – | –
2 | O=C([O-])c1c(OCC#CCN2CCC2)ccc2c1O[B-](O)(O)CC2.[Na+].[Na+] [Compound 62, Disodium; 8-[4-(azetidin-1-yl)but-2-ynoxy]-4,4-dihydroxy-5-oxa-4-boranuidabicyclo[4.4.0]deca-1(6),7,9-triene-7-carboxylate] | < 100 | X (key: X = Ki ≤ 0.1 μM; Y = 0.1 μM < Ki ≤ 1 μM; Z = Ki > 1 μM) | X (X = Ki ≤ 0.1 μM) | < 100 | X (X = Ki ≤ 0.1 μM) | X (X = Ki ≤ 0.1 μM) | X (X = MPC@4 ≤ 5 μg/mL) | X (X = MPC@4 ≤ 5 μg/mL) | X (X = MPC@4 ≤ 5 μg/mL) | Y (Y = 5 μg/mL < MPC@4 ≤ 20 μg/mL) | X (X = MPC@1 ≤ 5 μg/mL) | X (X = MPC@1 ≤ 5 μg/mL) | X (X = MPC@1 ≤ 5 μg/mL) | X (X = MPC@4 ≤ 5 μg/mL) | X (X = MPC@1 ≤ 5 μg/mL) | X (X = MPC@4 ≤ 5 μg/mL) | X (X = MPC@4 ≤ 5 μg/mL) | X (X = MPC@4 ≤ 5 μg/mL) | – | –
3 | COc1ccc2c(c1P(=O)(O)O)OB(O)CC2 [Compound 33, (2-Hydroxy-7-methoxy-3,4-dihydro-1,2-benzoxaborinin-8-yl)phosphonic acid] | – | – | X (X = Ki ≤ 0.1 μM) | < 100 | X (X = Ki ≤ 0.1 μM) | Z (Z = Ki > 1 μM) | Z (Z = MPC@4 > 20 μg/mL) | Z (Z = MPC@4 > 20 μg/mL) | Z (Z = MPC@4 > 20 μg/mL) | Z (Z = MPC@4 > 20 μg/mL) | X (X = MPC@1 ≤ 5 μg/mL) | Y (Y = 5 μg/mL < MPC@1 ≤ 20 μg/mL) | Y (Y = 5 μg/mL < MPC@1 ≤ 20 μg/mL) | Z (Z = MPC@4 > 20 μg/mL) | X (X = MPC@1 ≤ 5 μg/mL) | Y (Y = 5 μg/mL < MPC@4 ≤ 20 μg/mL) | Z (Z = MPC@4 > 20 μg/mL) | Z (Z = MPC@4 > 20 μg/mL) | > 1000 | Y (Y = 0.1 μM < Ki ≤ 1 μM)
4 | O=C([O-])c1cncc2c1O[B-](O)(O)CC2.[Na+].[Na+] [Compound 59, Disodium; 4,4-dihydroxy-5-oxa-9-aza-4-boranuidabicyclo[4.4.0]deca-1(6),7,9-triene-7-carboxylate] | 100 to 1000 | Z (key: X = Ki ≤ 0.1 μM; Y = 0.1 μM < Ki ≤ 1 μM; Z = Ki > 1 μM) | X (X = Ki ≤ 0.1 μM) | > 1000 | X (X = Ki ≤ 0.1 μM) | X (X = Ki ≤ 0.1 μM) | X (X = MPC@4 ≤ 5 μg/mL) | Y (Y = 5 μg/mL < MPC@4 ≤ 20 μg/mL) | X (X = MPC@4 ≤ 5 μg/mL) | Z (Z = MPC@4 > 20 μg/mL) | X (X = MPC@1 ≤ 5 μg/mL) | Z (Z = MPC@1 > 20 μg/mL) | Y (Y = 5 μg/mL < MPC@1 ≤ 20 μg/mL) | Z (Z = MPC@4 > 20 μg/mL) | X (X = MPC@1 ≤ 5 μg/mL) | Y (Y = 5 μg/mL < MPC@4 ≤ 20 μg/mL) | Y (Y = 5 μg/mL < MPC@4 ≤ 20 μg/mL) | X (X = MPC@4 ≤ 5 μg/mL) | – | –
5 | COc1ccc2c(c1C(=O)[O-])O[B-](O)(O)[C@@H](CCO)C2.[Na+].[Na+] [Compound 12, Disodium; (3R)-4,4-dihydroxy-3-(2-hydroxyethyl)-8-methoxy-5-oxa-4-boranuidabicyclo[4.4.0]deca-1(6),7,9-triene-7-carboxylate] | 100 to 1000 | X (key: X = Ki ≤ 0.1 μM; Y = 0.1 μM < Ki ≤ 1 μM; Z = Ki > 1 μM) | X (X = Ki ≤ 0.1 μM) | 100 to 1000 | X (X = Ki ≤ 0.1 μM) | X (X = Ki ≤ 0.1 μM) | Y (Y = 5 μg/mL < MPC@4 ≤ 20 μg/mL) | Y (Y = 5 μg/mL < MPC@4 ≤ 20 μg/mL) | Z (Z = MPC@4 > 20 μg/mL) | Z (Z = MPC@4 > 20 μg/mL) | Y (Y = 5 μg/mL < MPC@1 ≤ 20 μg/mL) | Y (Y = 5 μg/mL < MPC@1 ≤ 20 μg/mL) | Y (Y = 5 μg/mL < MPC@1 ≤ 20 μg/mL) | Y (Y = 5 μg/mL < MPC@4 ≤ 20 μg/mL) | X (X = MPC@1 ≤ 5 μg/mL) | Y (Y = 5 μg/mL < MPC@4 ≤ 20 μg/mL) | Y (Y = 5 μg/mL < MPC@4 ≤ 20 μg/mL) | Y (Y = 5 μg/mL < MPC@4 ≤ 20 μg/mL) | – | –
6 | O=C(O)c1c(-c2c[nH]nn2)ccc2c1O[B-](O)(O)CC2 [Compound 16, Disodium; 4,4-dihydroxy-8-(1H-triazol-5-yl)-5-oxa-4-boranuidabicyclo[4.4.0]deca-1(6),7,9-triene-7-carboxylate] | < 100 | X (key: X = Ki ≤ 0.1 μM; Y = 0.1 μM < Ki ≤ 1 μM; Z = Ki > 1 μM) | X (X = Ki ≤ 0.1 μM) | < 100 | X (X = Ki ≤ 0.1 μM) | X (X = Ki ≤ 0.1 μM) | X (X = MPC@4 ≤ 5 μg/mL) | X (X = MPC@4 ≤ 5 μg/mL) | X (X = MPC@4 ≤ 5 μg/mL) | Y (Y = 5 μg/mL < MPC@4 ≤ 20 μg/mL) | Y (Y = 5 μg/mL < MPC@1 ≤ 20 μg/mL) | Y (Y = 5 μg/mL < MPC@1 ≤ 20 μg/mL) | X (X = MPC@1 ≤ 5 μg/mL) | X (X = MPC@4 ≤ 5 μg/mL) | X (X = MPC@1 ≤ 5 μg/mL) | X (X = MPC@4 ≤ 5 μg/mL) | Y (Y = 5 μg/mL < MPC@4 ≤ 20 μg/mL) | X (X = MPC@4 ≤ 5 μg/mL) | – | –
